Measurements as given in paper PMC9847679, “The anti-breast cancer stem cell properties of gold(I)-non-steroidal anti-inflammatory drug complexes” (Chemical Science, 2022).
Read-outs that look alike come from different tables or passages of the source.

Columns and labels:
HMLER cells = test: Monolayer cytotoxicity (MTT assay), HMLER cells; format: cell-based, human
Source text: (§1) Cell Lines and Cell Culture Conditions. The human mammary epithelial HMLER and HMLER-shEcad cell lines were kindly donated by Prof. R. A. Weinberg (Whitehead Institute, MIT). The human epithelial breast MCF10A, breast adenocarcinoma MDA-MB-231 and MDA-MB-468, murine epithelial breast 4T1, and embryonic kidney HEK 293 cell lines were acquired from American Type Culture Collection (ATCC, Manassas, VA, USA).
(§2) HMLER, HMLER-shEcad, and MCF10A cells were maintained in Mammary Epithelial Cell Growth Medium (MEGM) with supplements and growth factors (BPE, hydrocortisone, hEGF, insulin, and gentamicin/amphotericin-B). MDA-MB-231, MDA-MB-468, 4T1, and HEK 293 cells were maintained in Dulbecco's Modified Eagle's Medium (DMEM) supplemented with fetal bovine serum (10 %) and penicillin/streptomycin (1 %). The cells were grown at 310 K in a humidified atmosphere containing 5% CO2.
(§3) Monolayer Cytotoxicity Studies. Exponentially growing cells were seeded at a density of approximately 5 × 10^3 cells per well in 96-well flat-bottomed microplates and allowed to attach for 24 h prior to addition of compounds. Various concentrations of the test compounds (0.0004-100 μM) were added and incubated for 72 h at 37 °C (total volume 200 μl). Stock solutions of the compounds were prepared as 10 mM DMSO solutions and diluted using cell […]
(§4) media. The final concentration of DMSO in each well was ≤1 %. After 72 h, 20 μl of MTT (4 mg mL-1 in PBS) was added to each well and the plates incubated for an additional 4 h at 37 °C. The media/MTT mixture was eliminated and DMSO (100 μl per well) was added to dissolve the formazan precipitates. The optical density was measured at 550 nm using a 96-well multiscanner autoreader. Absorbance values were normalised to (DMSO-containing) control wells and plotted as concentration of test compound versus % cell viability. IC50 values were interpolated from the resulting dose dependent curves. The reported IC50 values are the average of three independent experiments (n = 18). […]
(§5) After incubation for 16 […]
(§6) h, the fluorescence of the solutions was read at 590 nm (λex = 560 nm). Viable mammospheres reduce the amount of the oxidised TOX8 form (blue) and concurrently increase the amount of the fluorescent TOX8 intermediate (red), indicating the degree of mammosphere cytotoxicity caused by the test compound. […]
(§7) Cellular Uptake. To measure the cellular uptake of 1-3 about 1 million HMLER-shEcad cells were treated with 1-3 (0.25 μM) at 37 °C for 24 h. After incubation, the media was removed, the cells were washed with PBS (2 mL × 3) and harvested. The number of cells was counted at this stage, using a haemocytometer. This mitigates any cell death induced by 1-3 at the administered concentration and experimental cell loss. The cellular pellets were dissolved in 65% HNO3 (250 µL) overnight. A cellular pellet of HMLER-shEcad cells treated with 1 was also used to determine the gold content in the nuclear, cytoplasmic and membrane fractions. The Thermo Scientific NE-PER Nuclear and Cytoplasmic Extraction Kit was used to extract and separate the nuclear, cytoplasmic and membrane fractions. The fractions were dissolved in 65% HNO3 (250 µL final volume) overnight. All samples were diluted 17-fold with water and analysed using inductively coupled plasma mass spectrometry (ICP-MS, Thermo Scientific ICAP-Qc quadrupole ICP mass spectrometer). Gold levels are expressed as mass of Au (ng) per million cells. Results are presented as the mean of four determinations for each data point.
(§8) Intracellular ROS Assay. […]

HMLER-shEcad cells [1] = test: Monolayer cytotoxicity (MTT assay), HMLER-shEcad cells; format: cell-based, human
Source text: as §1, §2, §3, §4, §5, §6, §7, §8

COX-2 = COX-2 expression assay (flow cytometry); format: cell-based, human; conditions: LPS 2.5 μM 24 h pre-treatment; 1 at IC50 value or indomethacin 20 μM, 48 h
Experimental: COX-2 Expression Assay. HMLER-shEcad cells were seeded in 6-well plates (at a density […]
indomethacin (20 μM) and incubated for a further 48 h. The cells were then harvested by trypsinisation, fixed with 4% paraformaldehyde (at 37 °C for 10 min), permeabilised with ice-cold methanol (for 30 min), and suspended in PBS (200 μL). […]
labelled anti-COX-2 antibody (5 μL) was then added to the cell suspension and incubated in the dark for 1 h. The cells were then washed with PBS (1 mL) and analysed using a FACSCanto II flow cytometer (BD Biosciences) (10,000 events per sample were acquired) at the University of Leicester FACS Facility. The FL1 channel was used to assess COX-2 expression. Cell populations were analysed using the FlowJo software (Tree Star).
COX-2 Inhibition Enzyme Immunoassay (EIA). […]
(ovine) Inhibitor Screening Assay (Cayman Chemicals).” The assay was performed according to the manuf acturer’s instructions using a 96-well plate set up.

[2] = tested on: HMLER-shEcad mammospheres; test: Mammosphere viability assay (TOX8); format: cell-based, human; conditions: 5 days incubation
Experimental: Tumorsphere Formation and Viability Assay.
in ultralow-attachment 96-well plates (Corning) and incubated in MEGM supplemented with B27 (Invitrogen), 20 ng mL-1 EGF and 4 μg mL-1 heparin (Sigma) for 5 days. […] The viability of the mammospheres was determined by addition of a resazurin-based reagent, TOX8 (Sigma). After incubation for 16 h, the fluorescence of the solutions was read at 590 nm (λex = 560 nm). Viable mammospheres reduce the amount of the oxidised TOX8 form (blue) and concurrently increase the amount of the fluorescent TOX8 intermediate (red), indicating the degree of mammosphere cytotoxicity caused by the test compound. Fluorescence values were normalised to DMSO-containing controls and plotted as concentration of test compound versus % mammospheres viability. IC50 values were interpolated from the resulting dose dependent curves. The reported IC50 values are the average of three independent experiments, each consisting of two replicates per concentration level (overall n = 6).

MDA-MB-468 cells = test: Monolayer cytotoxicity (MTT assay), MDA-MB-468 cells; format: cell-based, human; conditions: 72 h incubation
Source text: as §1, §2, §3, §4
Cellular Uptake. […]

4T1 cells = test: Monolayer cytotoxicity (MTT assay), 4T1 cells; format: cell-based, murine; conditions: 72 h incubation
Source text: as §1, §2, §3
(§9) media. The final concentration of DMSO in each well was ≤1 %. […] The optical density was measured at 550 nm using a 96-well multiscanner autoreader. Absorbance values were normalised to (DMSO-containing) control wells and plotted as concentration of test compound versus % cell viability. […]
(§10) h, the fluorescence of the solutions was read at 590 nm (λex = 560 nm). […]
(§11) Cellular Uptake. […] The number of cells was counted at this stage, using a haemocytometer. […] All samples were diluted 17-fold with water and analysed using inductively coupled plasma mass spectrometry (ICP-MS, Thermo Scientific ICAP-Qc quadrupole ICP mass spectrometer). Gold levels are expressed as mass of Au (ng) per million cells. […]

MDA-MB-231 cells = test: Monolayer cytotoxicity (MTT assay), MDA-MB-231 cells; format: cell-based, human; conditions: 72 h incubation
Source text: as §1, §2, §3, §9, §10, §11

[3] = tested on: HMLER-shEcad mammospheres; set-up: method as in PMID 26806362, PMID 31209956, PMID 28932846; conditions: read-out: Mammosphere IC50; cited from earlier work
[4] = Water-octanol partition coefficient (shake-flask, UV-vis); format: physicochemical; conditions: room temperature 24 h
Experimental: Measurement of water-octanol partition coefficient (LogP). The LogP values for 1-8 were determined using the shake-flask method and UV-vis spectroscopy. The 1-octanol used in this experiment was pre-saturated with water. An aqueous solution of 1-8 (500 μL, 100 μM) was incubated with 1-octanol (500 μL) in a 1.5 mL tube. The tube was shaken at room temperature for 24 h. The two phases were separated by centrifugation and the 1-8 content in each phase was determined by UV-vis spectroscopy. […]

HMLER-shEcad cells [5] = tested on: HMLER-shEcad cells; set-up: method as in PMID 26806362, PMID 31209956, PMID 28932846; conditions: cited from earlier work
[6] = Homo sapiens, within concentration range tested

COc1ccc2c(c1)c(CC(=O)O)c(C)n2C(=O)c1ccc(Cl)cc1 [indomethacin]
IC50 (HMLER cells; [6]): > 100 µM
IC50 (HMLER-shEcad cells [1]; [6]): > 100 µM
COX-2 expression (COX-2): decreased

O=c1[nH]cc(F)c(=O)[nH]1 [5-Fluorouracil, 5-fluorouracil, reference compound]
IC50 ([2]; Homo sapiens, 120 h): 15 ± 1 µM

CC(=O)OC[C@H]1O[C@@H]([S-])[C@H](OC(C)=O)[C@@H](OC(C)=O)[C@@H]1OC(C)=O.CCP(CC)CC.[Au+] [auranofin]
fold more potent towards HMLER cells than HMLER-shEcad cells (HMLER cells): 2 fold
IC50 (HMLER cells; 72 h incubation, MTT): 0.013 ± 0.002 µM
IC50 (HMLER-shEcad cells [1]; 72 h incubation, MTT): 0.026 ± 0.005 µM

COc1ccc2cc([C@H](C)C(=O)[O][Au][PH](c3ccccc3)(c3ccccc3)c3ccccc3)ccc2c1 [complex 3]
IC50 (HMLER cells; 72 h incubation, MTT): 0.183 ± 0.001 µM
IC50 (MDA-MB-468 cells): 6.48 ± 1.43 µM
IC50 (HMLER-shEcad cells [1]; 72 h incubation, MTT): 0.063 ± 0.006 µM
IC50 [2]: 8 ± 1 µM
IC50 (4T1 cells): 10.1 ± 0.86 µM
IC50 (MDA-MB-231 cells): 7.77 ± 0.41 µM

N.N.O=C([O-])C1(C(=O)[O-])CCC1.[Pt+2] [Carboplatin, carboplatin]
IC50 [3]: 18 ± 1 µM

Cc1c(Cl)cccc1Nc1ccccc1C(=O)[O][Au][PH](c1ccccc1)(c1ccccc1)c1ccccc1 [complex 6]
LogP value [4]: 1.17 ± 0.37

CC[C@@H](C(=O)[C@@H](C)[C@@H](O)[C@H](C)[C@@H]1O[C@@H]([C@@H](CC)C(=O)O)CC[C@@H]1C)[C@H]1O[C@]2(C=C[C@@H](O)[C@]3(CC[C@@](C)([C@H]4CC[C@](O)(CC)[C@H](C)O4)O3)O2)[C@H](C)C[C@@H]1C [Salinomycin, salinomycin]
IC50 (HMLER-shEcad cells [5]): 4.23 ± 0.35 µM
IC50 [3]: 19 ± 2 µM
